Results reported in US20050202465A1, “Thymidylate synthase gene and metastasis” (The Johns Hopkins University, priority 2004, published 2005).

Tested on: colorectal cancer metastases
Assay: Overall survival after surgical removal of metastases in 5-FU treated colorectal cancer patients, by TYMS amplification status
Type: in vivo, human
Settings: for Median survival after metastasis removal / Survival range after metastasis removal: previous treatment 5-FU
Method: Tissue samples, including normal tissues, primary tumors, and metastases were obtained from colorectal cancer patients undergoing surgery at the Johns Hopkins Hospital between 1990 and 2002. A diagnosis of colorectal cancer was established by histological examination of surgical specimens and clinical information was retrospectively retrieved from patient records. Acquisition of tissue specimens and examination of clinical records was approved by an institutional review board and was performed in accordance with HIPAA regulations. Metastatic samples were obtained from complete resections, debulking, or biopsies of metastatic lesions.
Overall survival was calculated from the date of the surgical excision of the metastasis to the date of death or last follow-up and computed by Kaplan-Meier method. Data were censored when patients were lost to follow-up.
A corollary of this idea is that such patients would fare worse than those without TYMS amplification, as post-surgical therapy of patients with metastatic cancers often involves retreatment with 5-FU plus other agents (see Introduction). To evaluate this possibility, we compared the survival of patients with metastatic lesions that had previously been treated with 5-FU, segregated according to TYMS amplification status. Although the average age, stage at initial diagnosis, and metastasis size and location were similar between patients with and without increased TYMS gene copies, the median overall survival following surgical removal of metastases among patients with TYMS gene amplification was 329 days, as compared with 1021 days for patients without TYMS amplification (Table 2, p<0.01, t-Test). […] These differences were also significant in Kaplan-Meier analyses (FIG. 4).

[1] = Group A (n = 6), TYMS amplified in metastasis
[2] = Group B (n = 21), TYMS not amplified in metastasis

O=c1[nH]cc(F)c(=O)[nH]1 [5-FU, 5-fluorouracil]
Relative risk of death, patients with TYMS amplification vs without (5-FU treated patients, proportional hazard model, 95% confidence interval 1.06-11.4, p<0.05): 3.5 fold
Median survival after metastasis removal [1]: 329 days
Survival range after metastasis removal [1]: (109-708 days)
Median survival after metastasis removal [2]: 1021 days
Survival range after metastasis removal [2]: (255-3790 days)
